Here are results for 15 compounds from US4735959A, “Carboxylic acid amides and pharmaceutical compositions containing them” (Dr. Karl Thomae GmbH, priority 1981, dated 1988).

Where two headings read alike, the source gives them in different places.

The subject of the assay is blood-sugar. Put plainly: Blood-sugar lowering activity in starved female rats after oral administration. The class given is in vivo. The following applies: for change in vivo at 1 mg/kg / change in vivo at 10 mg/kg / change in vivo at 5 mg/kg: Rattus norvegicus, po, read-out: Blood-sugar lowering activity, percent as compared with the controls; for change in vivo at 1 mg/kg / Blood-sugar lowering activity, percent as compared with the controls: 1 mg/kg orally; for change in vivo at 10 mg/kg: 10 mg/kg orally (footnote *); for change in vivo at 5 mg/kg: 5 mg/kg orally. The procedure:
The blood-sugar lowering activity of the test compounds was determined in home-bred female rats with weights of from 180 to 220 grams. Twenty-four hours before starting the test the animals were starved. Before the test the compounds were suspended in 1.5% methyl cellulose and administered to the animals by means of an esophageal tube.
Blood was taken from the retroorbital plexus vein before administration of the test compounds as well as each of 1, 2, 3, and 4 hours after administration. Fifty microliters of each sample were deproteinized with 0.5 ml of 0.33N perchloric acid and centrifuged. The glucose content was determined in the supernatant according to the Hexokinase method by means of an analysis photometer. The statistical evalulation was performed with the t-test according to Student with p=0.05.

Setting [1] is: 1 hour, n.s. = not statistically significant.
Setting [2] is: 2 hours, n.s. = not statistically significant.
Where [3] appears, read: 3 hours, n.s. = not statistically significant.
Where [4] appears, read: 4 hours, n.s. = not statistically significant.

For the compound `O=C(O)C=Cc1ccc(CC(=O)NC(c2ccccc2)c2ccccc2N2CCCCC2)cc1` (stereo not drawn) [AK, 4-[(α-Phenyl-2-piperidino-benzyl)-aminocarbonylmethyl]-cinnamic acid], the change in vivo at 1 mg/kg is -32% under setting [1], -19% under setting [2], -10% under setting [3] and -17% under setting [4]. In addition, the change in vivo at 10 mg/kg reads like this: (1 hour) -48%; (2 hours) -47%; under setting [3], -40%; under setting [4], -45%.

As to `O=C(O)CCc1ccc(CC(=O)NC(c2ccccc2)c2ccccc2N2CCCCC2)cc1` (stereo not drawn) [AL, 3-{4-[(α-Phenyl-2-piperidino-benzyl)-aminocarbonylmethyl]-phenyl}-propionic acid], the change in vivo at 1 mg/kg is -40% under setting [1], -31% under setting [2], -23% under setting [3] and -12% under setting [4]. In addition, the change in vivo at 10 mg/kg is -43% (1 hour), -41% (2 hours), -38% under setting [3] and -34% under setting [4].

As to `O=C(Cc1ccc(C(=O)O)cc1)NC(c1ccccc1)c1ccc(Cl)cc1N1CCCCC1` (stereo not drawn) [AM, 4-[(4-Chloro-α-phenyl-2-piperidino-benzyl)-aminocarbonylmethyl]-benzoic acid], the “Blood-sugar lowering activity, percent as compared with the controls” value (“Blood-sugar lowering activity, percent” for short) under setting [3] is listed as “n.s” and the “Blood-sugar lowering activity, percent” value under setting [4] is on record as “n.s”. The change in vivo at 1 mg/kg under setting [1] was -11% and the change in vivo at 1 mg/kg under setting [2] was -13%. Further, the change in vivo at 5 mg/kg is -34% under setting [1], -35% under setting [2], -32% under setting [3] and -29% under setting [4].

For `Cc1cccc(N2CCCCC2)c1C(NC(=O)Cc1ccc(C(=O)O)cc1)c1ccccc1` (stereo not drawn) [AN, 4-[(6-Methyl-α-phenyl-2-piperidino-benzyl)-aminocarbonylmethyl]-benzoic acid], the “Blood-sugar lowering activity, percent” value was “n.s” under setting [3] and “n.s” under setting [4]. In addition, the change in vivo at 1 mg/kg is -27% under setting [1] and -24% under setting [2]. The change in vivo at 5 mg/kg runs as follows: under setting [1], -39%; under setting [2], -35%; under setting [3], -27%; under setting [4], -26%.

As to `Cc1ccc(C(NC(=O)Cc2ccc(C(=O)O)cc2)c2ccccc2)c(N2CCCCC2)c1` (stereo not drawn) [AO, 4-[(4-Methyl-α-phenyl-2-piperidino-benzyl)-aminocarbonylmethyl]-benzoic acid], the change in vivo at 1 mg/kg by setting is: under setting [2], -17%; under setting [3], -15%; under setting [4], -11%. Moreover, the change in vivo at 5 mg/kg by setting is: under setting [1], -37%; under setting [2], -34%; under setting [3], -32%; under setting [4], -31%.

Consider `O=Cc1ccc(CC(=O)NC(c2ccccc2)c2ccccc2N2CCCCC2)cc1` (stereo not drawn) [AP, 4-[(α-Phenyl-2-piperidino-benzyl)-aminocarbonylmethyl]-benzaldehyde], for which the change in vivo at 1 mg/kg by setting is: under setting [1], -26%; under setting [2], -28%; under setting [3], -22%; under setting [4], -17%.

Consider `CC1CCCCN1c1ccccc1C(NC(=O)Cc1ccc(C(=O)O)cc1)c1ccccc1` (stereo not drawn) [AQ, 4-[(2-(2-Methyl-piperidino)-α-phenyl-benzyl)-aminocarbonylmethyl]-benzoic acid], for which the “Blood-sugar lowering activity, percent” value is recorded as “n.s” under setting [3] and “n.s” under setting [4]. Also, the change in vivo at 1 mg/kg runs as follows: under setting [1], -16%; under setting [2], -11%. For the same compound, the change in vivo at 5 mg/kg was -32% under setting [1], -31% under setting [2], -24% under setting [3] and -19% under setting [4].

`CC1CCCN(c2ccccc2C(NC(=O)Cc2ccc(C(=O)O)cc2)c2ccccc2)C1` (stereo not drawn) [AR, 4-[(2-(3-Methyl-piperidino)-α-phenyl-benzyl)-aminocarbonylmethyl]-benzoic acid]: the “Blood-sugar lowering activity, percent” value is, setting by setting: under setting [3], “n.s”; under setting [4], “n.s”. The change in vivo at 1 mg/kg by setting is: under setting [1], -13%; under setting [2], -9%. In addition, the change in vivo at 5 mg/kg was -35% under setting [1], -30% under setting [2], -29% under setting [3] and -31% under setting [4].

As to `O=C(Cc1ccc(C(=O)O)cc1)NC(c1ccccc1)c1cccc(Cl)c1N1CCCCC1` (stereo not drawn) [AS, 4-[(3-Chloro-α-phenyl-2-piperidino-benzyl)-aminocarbonylmethyl]-benzoic acid], the “Blood-sugar lowering activity, percent” value runs as follows: under setting [3], “n.s”; under setting [4], “n.s”. Moreover, the change in vivo at 1 mg/kg is -21% under setting [1] and -13% under setting [2]. The change in vivo at 5 mg/kg is -45% under setting [1], -44% under setting [2], -42% under setting [3] and -32% under setting [4].

With `CC/C=C(\NC(=O)Cc1ccc(C(=O)OCC)cc1)c1ccccc1N1CCCCC1` [B, (Z)-4-[(1-(2-Piperidino-phenyl)-1-buten-1-yl)-aminocarbonylmethyl]-benzoic acid ethyl ester], the change in vivo at 1 mg/kg reads like this: under setting [1], -39%; under setting [2], -19%; under setting [3], -26%; under setting [4], -30%. Moreover, the change in vivo at 5 mg/kg by setting is: under setting [1], -44%; under setting [2], -39%; under setting [3], -26%; under setting [4], -35%.

Turning to `COCC(NC(=O)Cc1ccc(C(=O)O)cc1)c1ccccc1N1CCCCC1` (stereo not shown) [Compound P, 4-[(2-Methoxy-1-(2-piperidino-phenyl)-1-ethyl)-aminocarbonylmethyl]-benzoic acid], the “Blood-sugar lowering activity, percent” value runs as follows: under setting [3], “n.s”; under setting [4], “n.s”. Moreover, the change in vivo at 1 mg/kg under setting [1] was -37% and the change in vivo at 1 mg/kg under setting [2] is -19%. For the same compound, the change in vivo at 5 mg/kg is, setting by setting: under setting [1], -49%; under setting [2], -43%; under setting [3], -34%; under setting [4], -22%.

Consider `CCCC/C=C(\NC(=O)Cc1ccc(C(=O)OCC)cc1)c1ccccc1N1CCCCC1` [E, (Z)-4-[(1-(2-Piperidino-phenyl)-1-hexen-1-yl)-aminocarbonylmethyl]-benzoic acid ethyl ester], for which the change in vivo at 1 mg/kg was -23% under setting [1], -23% under setting [2], -12% under setting [3] and -18% under setting [4]. Moreover, the change in vivo at 5 mg/kg reads like this: under setting [1], -46%; under setting [2], -40%; under setting [3], -38%; under setting [4], -26%.

For the compound `O=C(Cc1ccc(C(=O)O)cc1)N/C(=C\Cc1ccccc1)c1ccccc1N1CCCCC1` [F, (Z)-4-[(3-Phenyl-1-(2-piperidino-phenyl)-1-propen-1-yl)-aminocarbonylmethyl]-benzoic acid], the change in vivo at 5 mg/kg is, setting by setting: under setting [1], -43%; under setting [2], -42%; under setting [3], -39%; under setting [4], -32%.

As to `CC/C=C(\NC(=O)Cc1ccc(C(=O)O)cc1)c1ccccc1N1CCCC(C)(C)C1` [G, (Z)-4-[(1-(2-(3,3-Dimethyl-piperidino)-phenyl)-1-buten-1-yl)-aminocarbonylmethyl]-benzoic acid], the change in vivo at 1 mg/kg under setting [1] was -44%, the change in vivo at 1 mg/kg under setting [2] was -42%, the change in vivo at 1 mg/kg under setting [3] is -37% and the change in vivo at 1 mg/kg under setting [4] was -31%.

Take `CCCC(NC(=O)Cc1ccc(C(=O)O)cc1)c1ccccc1N1CCCC1` (stereo not shown) [H, 4-[(1-(2-Pyrrolidino-phenyl)-1-butyl)-aminocarbonylmethyl]-benzoic acid]: the change in vivo at 5 mg/kg is -50% under setting [1], -46% under setting [2], -44% under setting [3] and -45% under setting [4].
